Assay results as given in patent US12704520B2, “Melanogenesis detection method using FAM86A” (Research & Business Foundation Sungkyunkwan University, priority 2019, dated 2026).

Columns and labels:
[1] = tested on: MAPK & MC1R signaling pathway proteins; assay: Western blotting of MAPK & MC1R signaling pathway proteins after FAM86A knockdown; assay type: cell-based, mouse; conditions: B16F10 cells, 48 hours
Experimental: The B16F10 cells cultured in Example 1 were seeded in 6-well plates at a density of 5×10^4 cells per well, grown for 24 hours, and FAM86A shRNA represented by SEQ ID NO: 17 was used to induce the knockdown of FAM86A gene. The cells were cultured in an incubator under conditions of 37° C. and 5% CO2 for 48 hours. Afterward, the cells were washed twice with PBS. After completely removing the PBS, 200 μL of RIPA buffer, which is a cell lysis and staining reagent, was added to the plate, and the cells were collected using a scraper. Afterward, a protein was quantified using a BCA assay, and electrophoresis was performed using 10% SDS-PAGE. The protein in the resulting PAGE gel was transferred onto a PVDF membrane, and the resulting PVDF membrane onto which the protein transfer had been completed was blocked in TBS-T (in 100 mM NaCl, 10 mM Tris, 0.1% (v/v) Tween-20, pH 7.4 (PBST) containing 3% BSA) at room temperature. Then, after washing three times for 10 minutes using TBS-T, a primary antibody in 3% BSA dissolved in TBS-T was treated for 1 hour, and sufficiently washed with TBS-T. In addition, a secondary antibody was treated for 1 hour, and washed three times with PBS-T for 10 minutes each. Subsequently, the amount and location of a specific protein were confirmed using an ECL detection system. The correction of the protein amount was performed by checking the amount of an actin protein by stripping the PVDF membrane, and confirming it to have the same amount as that of the protein of interest. The primary and secondary antibodies were purchased from Cell Signaling and Santa Cruz.

B16F10 cells = assay: Melanin content assay after FAM86A knockdown; assay type: cell-based, mouse; conditions: FAM86A knockdown without α-MSH, 48 hours, absorbance 405 nm
Experimental: The B16F10 cells cultured in Example 1 were seeded in a 6-well plate at 5×10^4 cells/well and cultured for 24 hours, and the knockdown of the FAM86A gene was induced using FAM86A shRNA represented by SEQ ID NO: 17. The cells were cultured in an incubator under conditions of 37° C. and 5% CO2 for 48 hours, the medium was removed, and then a cell lysis buffer was added at 200 μL per well to lyse the cells, followed by centrifugation at 4° C. and 12,000 rpm for 5 minutes and removal of a supernatant. The resulting pellet was treated with 100 μL of a 10% sodium dodecyl sulfate-1M NaOH solution, and heated for 30 minutes at 60° C. Afterward, the heated solution was maintained at room temperature to cool to 25° C., and absorbance at 405 nm was measured. Here, an amount of melanin production was calculated based on 100% of the amount of melanin in cells in which the FAM86A gene was not knocked down.

SEQ ID NO: 17: FAM86 shRNA (Mus musculus, NM_027446.2), pLKO.1 vector, target sequence SEQ ID NO: 27; used in the examples (DNA CCGGGTCTATGTAGCCTATACTATCCTCGAGGATAGTATAGGCTACATAGACTTTTTG)
expression level of MITF protein [1]: significantly increased
expression level of p-CREB protein [1]: significantly increased
expression level of p-PKA protein [1]: significantly increased
p-ERK [1]: decreased
p-JNK [1]: increased
p-p38 [1]: increased
amount of melanin (production) (B16F10 cells): increased
